Test results from patent publication US20230348424A1, “HETEROCYCLIC COMPOUNDS AND METHODS OF USE” (Schrödinger, Inc., priority 2022, published 2023).

Target: SOS1:KRAS (G12C) interaction (Homo sapiens (Human), UniProt Q07889)
Assay: SOS1 KRas(G12C) FRET Assay
Format: binding
Details: 0.5 nM His10-SOS1 (res. 564-1049), 2.5 nM GST-KRAS G12C (res. 1-169), 2 hrs at RT
Procedure, shortened: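 GST-KRAS G12C (res. 1-169) at 2.5 nM and His10-SOS1 (res. 564-1049) at 0.5 nM, final, in PBS with 0.1% BSA, 5 mM MgCl2, 100 mM KF, 5 mM DTT and 0.5% DMSO. After 2 h at RT, FRET read at 665/615 nm and normalized to DMSO and no-SOS1 controls. IC50 by non-linear regression.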

SOS1:KRAS (G12C) interaction, sequence (Q07889 564-1049, stated change not applied): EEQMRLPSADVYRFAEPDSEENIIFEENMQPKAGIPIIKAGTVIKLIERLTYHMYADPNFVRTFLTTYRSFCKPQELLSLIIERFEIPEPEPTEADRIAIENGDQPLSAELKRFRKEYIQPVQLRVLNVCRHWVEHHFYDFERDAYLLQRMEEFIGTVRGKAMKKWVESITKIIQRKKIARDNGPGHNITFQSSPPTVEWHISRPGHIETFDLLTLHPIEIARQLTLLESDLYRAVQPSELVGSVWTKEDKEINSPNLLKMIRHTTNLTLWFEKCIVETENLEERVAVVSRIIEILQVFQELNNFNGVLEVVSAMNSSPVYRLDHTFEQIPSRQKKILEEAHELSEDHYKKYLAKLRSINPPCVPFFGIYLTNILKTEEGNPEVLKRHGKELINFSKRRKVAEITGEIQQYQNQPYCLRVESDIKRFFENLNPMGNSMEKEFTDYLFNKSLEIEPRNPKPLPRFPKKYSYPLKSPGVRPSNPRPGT

Structure (SMILES)	IC50 [nM]
C[C@@H](NC(=O)c1cn(C2(C(F)F)CC2)c(=O)cc1N[C@@H]1[C@@H]2C[C@H]1CN(C)C2)c1cccc(C(F)F)c1F (single isomer, unassigned) [Example 250]	21.7
COc1ccc([C@@H](C)NC(=O)c2cn(C3(C(F)F)CC3)c(=O)cc2NC2CCN(C)CC2)c(F)c1C(F)(F)F (single isomer, unassigned) [Example 165]	7940
Cc1c([C@@H](C)NC(=O)c2cn(C3CCOCC3)c(=O)cc2NC2CN(C)C2)cccc1C(F)(F)F [Example 28, (R)-N-(1-(2-methyl-3-(trifluoromethyl)phenyl)ethyl)-4-((1-methylazetidin-3-yl)amino)-6-oxo-1-(tetrahydro-2H-pyran-4-yl)-1,6-dihydropyridine-3-carboxamide]	59.2
C[C@@H](NC(=O)c1cn([C@]23COC[C@H]2C3)c(=O)cc1N[C@H]1[C@@H]2CN(C)C[C@@H]21)c1cccc(C(C)(F)F)c1F [Example 289, 1-((1S,5S)-3-oxabicyclo[3.1.0]hexan-1-yl)-N-((R)-1-(3-(1,1-difluoroethyl)-2-fluorophenyl)ethyl)-4-(((1R,5S,6s)-3-methyl-3-azabicyclo[3.1.0]hexan-6-yl)amino)-6-oxo-1,6-dihydropyridine-3-carboxamide]	13.3
C[C@@H](NC(=O)c1cn(C2(C(F)F)CC2)c(=O)cc1NC1CCN(C2(C)CC2)CC1)c1cccc(C(F)F)c1F [Example 288, (R)-N-(1-(3-(difluoromethyl)-2-fluorophenyl)ethyl)-1-(1-(difluoromethyl)cyclopropyl)-4-((1-(1-methylcyclopropyl)piperidin-4-yl)amino)-6-oxo-1,6-dihydropyridine-3-carboxamide]	23.6
C[C@@H](NC(=O)c1cn(C2CCC2)c(=O)cc1NC1CCN(C)CC1)c1cccc(S(F)(F)(F)(F)F)c1 [Example 164, (R)-1-cyclobutyl-4-((1-methylpiperidin-4-yl)amino)-6-oxo-N-(1-(3-(pentafluoro-16-sulfaneyl)phenyl)ethyl)-1,6-dihydropyridine-3-carboxamide]	13.5
Cc1c([C@@H](C)NC(=O)c2cn(C3CCOCC3)c(=O)cc2NC2CCNC2)cccc1C(F)(F)F (stereo partly drawn) [Example 44, N-((R)-1-(2-methyl-3-(trifluoromethyl)phenyl)ethyl)-6-oxo-4-(pyrrolidin-3-ylamino)-1-(tetrahydro-2H-pyran-4-yl)-1,6-dihydropyridine-3-carboxamide]	34.6
C[C@@H](NC(=O)c1cn(C2(C(F)F)CCC2)c(=O)cc1N[C@H]1[C@@H]2C[C@H]1CN(C)C2)c1cccc(C(F)F)c1F (single isomer, unassigned) [Example 253]	43.1
C[C@@H](NC(=O)c1cn([C@@H]2CCOC(C)(C)C2)c(=O)cc1NC1CCN(C)CC1)c1cccc(C(F)F)c1F (single isomer, unassigned) [Example 307]	4.9
C[C@@H](NC(=O)c1cn(C2(C(F)F)CC2)c(=O)cc1N[C@@H]1CCN2CCC[C@@H]2C1)c1cccc(C(F)F)c1F (single isomer, unassigned) [Example 306]	41.7
C[C@@H](NC(=O)c1cn([C@H]2CC23CC3)c(=O)cc1N[C@H]1[C@@H]2CN(C)C[C@@H]21)c1cccc(C(C)(F)F)c1F (single isomer, unassigned) [Example 255]	27
CC(Nc1cc(=O)n(C2(C(F)F)CC2)cc1C(=O)N[C@H](C)c1cccc(C(F)F)c1F)C1(CO)CC1 (stereo partly drawn) [Example 191, N-((R)-1-(3-(difluoromethyl)-2-fluorophenyl)ethyl)-1-(1-(difluoromethyl)cyclopropyl)-4-((1-(1-(hydroxymethyl)cyclopropyl)ethyl)amino)-6-oxo-1,6-dihydropyridine-3-carboxamide]	140
Cc1c([C@@H](C)NC(=O)c2cn(C3CCOCC3)c(=O)cc2N[C@@H]2CC[C@]23CCCN(C)C3)cccc1C(F)(F)F (single isomer, unassigned) [Example 297]	33.4
Cc1c([C@@H](C)NC(=O)c2cn(C3CCOCC3)c(=O)cc2N[C@@H]2C[C@@H]3CC[C@H]2N3C)cccc1C(F)(F)F (single isomer, unassigned) [Example 37]	32.9
Cc1c([C@@H](C)NC(=O)c2cn(C3CCOCC3)c(=O)cc2NC2[C@@H]3C[C@H]2CN(C)C3)cccc1C(F)(F)F (single isomer, unassigned) [Example 22]	25.9
C[C@@H](NC(=O)c1cn([C@@H]2CCOC[C@H]2F)c(=O)cc1N[C@@H]1[C@@H]2C[C@H]1CN(C)C2)c1cccc(C(F)F)c1F [Example 244, N-((R)-1-(3-(difluoromethyl)-2-fluorophenyl)ethyl)-1-((3S,4R)-3-fluorotetrahydro-2H-pyran-4-yl)-4-(((1R5S,6s)-3-methyl-3-azabicyclo[3.1.1]heptan-6-yl)amino)-6-oxo-1,6-dihydropyridine-3-carboxamide]	18.1

Structure (SMILES)	IC50 [nM]
C[C@@H](NC(=O)c1cn([C@H]2[C@H](C)C2(F)F)c(=O)cc1N[C@H]1[C@@H]2CN(C)C[C@@H]21)c1cccc(C(C)(F)F)c1F (single isomer, unassigned) [Example 196]	43.2
C[C@@H](NC(=O)c1cn([C@@H]2C[C@@H]2C)c(=O)cc1N[C@H]1[C@@H]2CN(C)C[C@@H]21)c1cccc(C(F)F)c1F (single isomer, unassigned) [Example 274]	10.6
C[C@@H]1C[C@@H]1n1cc(C(=O)N[C@H](C)c2cccc(C(F)F)c2F)c(N[C@H]2[C@@H]3CN(C)C[C@@H]32)cc1=O (single isomer, unassigned) [Example 273]	15.7
C[C@@H](NC(=O)c1cn(C2(C(F)F)CC2)c(=O)cc1N[C@H]1[C@@H]2CC[C@H]1CNC2)c1cccc(C(F)F)c1F (single isomer, unassigned) [Example 280]	15.8
Cc1c([C@@H](C)NC(=O)c2cn(C3CCOCC3)c(=O)cc2N[C@H]2C[C@H]3CC[C@@H]2N3C)cccc1C(F)(F)F (single isomer, unassigned) [Example 38]	45.8
C[C@@H](NC(=O)c1cn(C2(C(F)F)CC2)c(=O)cc1N[C@H]1[C@@H]2CNC[C@@H]21)c1cccc(C(F)F)c1F [Example 279, 4-(((1R,5S,6s)-3-azabicyclo[3.1.0]hexan-6-yl)amino)-N-((R)-1-(3-(difluoromethyl)-2-fluorophenyl)ethyl)-1-(1-(difluoromethyl)cyclopropyl)-6-oxo-1,6-dihydropyridine-3-carboxamide]	37.3
C[C@@H](NC(=O)c1cn([C@H]2CCC2(F)F)c(=O)cc1N[C@H]1[C@@H]2CC[C@H]1CN(C)C2)c1cccc(C(F)F)c1F [Example 210, 1-((S)-2,2-difluorocyclobutyl)-N-((R)-1-(3-(difluoromethyl)-2-fluorophenyl)ethyl)-4-(((1R,5S,8r)-3-methyl-3-azabicyclo[3.2.1]octan-8-yl)amino)-6-oxo-1,6-dihydropyridine-3-carboxamide]	4.3
C[C@@H](NC(=O)c1cn(C2(C(F)F)CC2)c(=O)cc1N[C@@H]1[C@@H]2CN(C)C[C@@H]21)c1cccc(C(F)F)c1F [Example 56, N-((R)-1-(3-(difluoromethyl)-2-fluorophenyl)ethyl)-1-(1-(difluoromethyl)cyclopropyl)-4-(((1R,5S,6r)-3-methyl-3-azabicyclo[3.1.0]hexan-6-yl)amino)-6-oxo-1,6-dihydropyridine-3-carboxamide]	34.2
C[C@@H](NC(=O)c1cn(C23CC(C2)C3)c(=O)cc1N[C@H]1[C@@H]2C[C@H]1CN(C)C2)c1cccc(C(F)F)c1F [Example 209, 1-(bicyclo[1.1.1]pentan-1-yl)-N-((R)-1-(3-(difluoromethyl)-2-fluorophenyl)ethyl)-4-(((1R,5S,6r)-3-methyl-3-azabicyclo[3.1.1]heptan-6-yl)amino)-6-oxo-1,6-dihydropyridine-3-carboxamide]	63.4
C[C@@H](NC(=O)c1cn(C2(C(F)F)CC2)c(=O)cc1NC1CCN(C)CC1)c1cccc2c1OCC2(F)F [Example 53, (R)-N-(1-(3,3-difluoro-2,3-dihydrobenzofuran-7-yl)ethyl)-1-(1-(difluoromethyl)cyclopropyl)-4-((1-methylpiperidin-4-yl)amino)-6-oxo-1,6-dihydropyridine-3-carboxamide]	15.6
C[C@H](NC(=O)c1cn(C23CC(C2)C3)c(=O)cc1N[C@H]1[C@@H]2CN(C)C[C@@H]21)c1cccc(C#N)c1Cl (single isomer, unassigned) [Example 178]	> 10000
C[C@@H](NC(=O)c1cn(C2CCOCC2)c(=O)cc1NC1CCN(C)CC1)c1cccc(C(F)F)c1F [Example 41, (R)-N-(1-(3-(difluoromethyl)-2-fluorophenyl)ethyl)-4-((1-methylpiperidin-4-yl)amino)-6-oxo-1-(tetrahydro-2H-pyran-4-yl)-1,6-dihydropyridine-3-carboxamide]	7.8
C[C@@H](NC(=O)c1cn([C@]23COC[C@H]2C3)c(=O)cc1N[C@H]1[C@@H]2CN(C)C[C@@H]21)c1cccc(C(F)(F)F)c1F [Example 290, 1-((1S,5S)-3-oxabicyclo[3.1.0]hexan-1-yl)-N-((R)-1-(2-fluoro-3-(trifluoromethyl)phenyl)ethyl)-4-(((1R,5S,6s)-3-methyl-3-azabicyclo[3.1.0]hexan-6-yl)amino)-6-oxo-1,6-dihydropyridine-3-carboxamide]	9.2
C[C@@H](NC(=O)c1cn(C2(C(F)F)CC2)c(=O)cc1N[C@@H]1[C@@H]2CC[C@H]1CN(C)C2)c1cccc(C(F)F)c1F [Example 294, N-((R)-1-(3-(difluoromethyl)-2-fluorophenyl)ethyl)-1-(1-(difluoromethyl)cyclopropyl)-4-(((1R,5S,8s)-3-(methyl-d3)-3-azabicyclo[3.2.1]octan-8-yl)amino)-6-oxo-1,6-dihydropyridine-3-carboxamide]	53.4
C[C@@H](NC(=O)c1cn(C2(C(F)F)CC2)c(=O)cc1N[C@H]1C[C@H]2C[C@@H]1CN2C)c1cccc(C(F)F)c1F (single isomer, unassigned) [Example 236]	45.3
